Assay results taken from patent US12384751B2, “Allosteric activators of the ALPHA1A-adrenergic receptor” (The Cleveland Clinic Foundation, priority 2019, dated 2025).
Entries after “also recorded” stand apart in the source; their conditions may differ.

Key:
[1] = system: 3×TG Alzheimer's Disease (AD) mouse model; test: Hippocampal CA1 electrophysiology (LTP, input-output, paired-pulse ratio) in 3×TG mice; format: in vivo
Protocol: AD mice were first randomized and sorted into control or treatment groups. […] 14 AD mice from each treatment group received Compound 3 in the drinking water (2.611 mg/kg/bw) to deliver a daily dose near the peak potentiation of the cAMP response in the brain at 10^−8M based upon the PAM assay and pharmacokinetics. This was achieved by adding Compound 3 to the drinking water at 32 uM, assuming the mice drink 6 ml/day, with only 10% of bioavailable drug reaching the brain. The drug was administered in the drinking water for 10 months, starting at age 2 months, then subjected to either different cognitive behavioral tests or electrophysiology at age 12 months to maximize the manifestations of AD symptoms in these mice. Mice are maintained on the drug for the duration of the studies and blinded to the operator.
At 12 months of age mice were subjected to long term potentiation (LTP) (FIG. 25).
Electrophysiology. Hippocampi are removed and slices cut 400 μm thick and immediately transferred to an oxygenated holding chamber filled with artificial cerebrospinal fluid, acclimated and transferred to recording chambers. Micropipettes are backfilled with NaCl solution and placed in the stratum radiatum. Evoked field excitatory postsynaptic potentials (fEPSPs) are measured in current clamp mode. An ISO-flex stimulator paired with a 7.5-cm bipolar tungsten-stimulating electrode is used for presynaptic stimulation of the Schaffer collateral-commissural fibers. Signals are converted from analog to digital and electronic cycling and noise filtered. Basal synaptic transmission is assessed by determining input-output curves, generated by applying a stepwise 5 μA increase in stimulation intensity. Responses are elicited every 20 seconds with duration of 100 μs per pulse. Short-term plasticity is investigated by assessing paired-pulse facilitation (PPF) by applying two pulses with interpulse intervals of 35-300 ms. A baseline response of 30 min is recorded immediately after PPF, which is followed by θ-burst stimulation (TBS) given at 80% maximal response to induce LTP. fEPSPs are recorded at 50% maximal response every 20 seconds for 90 minutes.

α1B-AR = biological target: T1, α1B-AR (Homo sapiens, UniProt P35368); test: Competition binding with [125I]HEAT at α1B-AR
T1 construct: expressed in transfected cells; host or cells: Rat-1 fibroblast cells
T1 sequence (P35368 1-520): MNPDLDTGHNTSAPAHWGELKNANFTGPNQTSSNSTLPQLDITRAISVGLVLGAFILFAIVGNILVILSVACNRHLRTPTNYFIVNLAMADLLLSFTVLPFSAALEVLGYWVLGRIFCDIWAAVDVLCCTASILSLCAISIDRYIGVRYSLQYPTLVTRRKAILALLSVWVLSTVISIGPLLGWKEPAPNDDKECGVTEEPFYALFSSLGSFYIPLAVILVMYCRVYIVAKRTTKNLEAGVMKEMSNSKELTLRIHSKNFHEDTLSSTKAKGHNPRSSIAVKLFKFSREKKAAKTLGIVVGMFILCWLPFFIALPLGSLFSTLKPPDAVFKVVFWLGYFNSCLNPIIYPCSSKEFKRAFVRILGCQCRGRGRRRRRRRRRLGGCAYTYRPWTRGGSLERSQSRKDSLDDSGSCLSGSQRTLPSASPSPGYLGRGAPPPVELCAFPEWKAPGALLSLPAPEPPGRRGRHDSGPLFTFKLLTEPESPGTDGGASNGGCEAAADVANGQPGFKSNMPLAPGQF
Protocol: Competition binding assays: These compounds were characterized for their ligand binding properties at the α1-AR subtypes. The binding affinities of Compounds 1-10 were determined in a series of competition-binding experiments with the α1-AR-selective antagonist [^125I]HEAT as the radioligand. Assays were performed in duplicate in HEM buffer, in a total assay volume of 1000 μl. Radioligand binding assays are composed of 5 ug of membranes, harvested from Rat-1 fibroblast cells expressing only one of the alpha1-AR subtypes, HEM buffer containing GTP (composed of 20 mM HEPES, pH 7.4, 1.4 mM EGTA, 12.5 mM MgCl2, pH to 7.4), 0.5 mM GTP, 35-80 pM^125I-HEAT, and various doses of norepinephrine or epinephrine and incubated with shaking at 25° C. for 1-2 hours. The above conditions will convert all the conformations of the receptor into a single low affinity site. To show both high and low affinity sites of the receptor (typically seen with GPCR agonists), the GTP is removed from the binding buffer. Nonspecific binding was determined experimentally in the presence of 10^−4 M phentolamine. Unbound radioactivity was separated from membrane-bound radioactivity by filtration through Whatman GF/C filter paper. […] Bound radioactivity remaining on the filters was counted on an ICN gamma counter operating at 79.8% efficiency. Data are analyzed using Graphpad Prism.

α1A-AR = biological target: T2, α1A-AR (Homo sapiens, UniProt P35348); test: Effect of compound on binding affinity of norepinephrine, epinephrine or other ligands at α1A-AR; design: expressed in transfected cells; host or cells: Rat-1 fibroblast cells
T2 sequence (P35348 1-466): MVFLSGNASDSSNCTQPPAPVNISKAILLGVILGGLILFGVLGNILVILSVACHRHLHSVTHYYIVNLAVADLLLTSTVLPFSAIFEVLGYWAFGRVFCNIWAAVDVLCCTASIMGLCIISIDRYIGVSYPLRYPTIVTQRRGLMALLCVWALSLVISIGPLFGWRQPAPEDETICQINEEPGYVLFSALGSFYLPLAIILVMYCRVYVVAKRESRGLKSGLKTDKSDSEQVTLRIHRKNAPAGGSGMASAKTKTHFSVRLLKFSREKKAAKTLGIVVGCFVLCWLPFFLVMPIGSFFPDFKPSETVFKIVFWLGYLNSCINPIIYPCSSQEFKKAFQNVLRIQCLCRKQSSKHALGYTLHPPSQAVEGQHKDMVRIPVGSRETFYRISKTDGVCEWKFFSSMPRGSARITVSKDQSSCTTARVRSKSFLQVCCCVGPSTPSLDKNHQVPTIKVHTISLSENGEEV

Structure (SMILES): CC(C)Cc1c(OCC2=NCCN2)cccc1N(C)S(C)(=O)=O [Compound 3, N-[3-(4,5-Dihydro-1H-imidazol-2-ylmethoxy)-2-isobutyl-phenyl]-N-methyl-methanesulfonamide]
- paired pulse ratio (PPR) vs untreated, female ([1]; female 3×TG mice): higher
- basal synaptic transmission / synaptic strength (input-output) ([1]; female 3×TG mice, CA1, approaching significance): increase synaptic strength; also recorded: increased
- long term potentiation (LTP) vs untreated ([1]; female AD mice, 12 months of age, CA1): statistically significant (p<0.01)
- paired pulse ratio (PPR) vs untreated, male ([1]; male 3×TG mice): increased PPR
- specific binding at the α1B-AR (α1B-AR): little, if any, specific binding; also recorded: no affinity
- effect on binding of phentolamine at the α1A-AR (α1A-AR; 10^−5M): no effect; also recorded: does not change the affinity
- effect on binding of cirazoline at the α1A-AR (α1A-AR; 10^−5M and 10^−7M): does not affect; also recorded: no effect
